Consider 5 compounds from patent US9328158B2, “H. pylori lipopolysaccharide outer core epitope” (National Research Council of Canada, priority 2009, dated 2016).

Values after ≈ are worked out from the molar mass of the structure shown.

The target of the experiment is 1C4F9 mAb. In words: Inhibition ELISA of 1C4F9 mAb binding to adsorbed LPS. To be noted: Concentration of the oligosaccharide or LPS required for 50% inhibition; purified 1C4F9. Set-up: species or system mouse. The method, then:
Studies of the specificity of the glucan-specific antibody were carried out using a series of linear oligosaccharides consisting of consecutive α1,6-linked glucose residues Glc→[α(1→6)Glc]n=1-6 and selective purified H. pylori LPS. For inhibition ELISA, serial dilutions of linear α1,6-linked glucose-containing oligosaccharides from isomalto-series [Glcα1→(6Glcα1→)n=1-6] (USBIOLOGICALS™, Swampscott, […].) or H. pylori 26695, O:3 and PJ2 LPS inhibitors were prepared and mixed with previously prepared dilutions of purified 1 C4F9 that gave an OD450=1. […] After this step, the indirect ELISA procedure was followed as described in Example 6.
`OCC1OC(OCC2OC(OCC3OC(OCC4OC(OCC5OC(OCC6OC(OCC7OC(O)C(O)C(O)C7O)C(O)C(O)C6O)C(O)C(O)C5O)C(O)C(O)C4O)C(O)C(O)C3O)C(O)C(O)C2O)C(O)C(O)C1O` (centres unmarked) [Isomaltoheptaose]: the IC50 worked out at 210 µg/mL (≈ 182 µM).
Next, `OCC1OC(OCC2OC(OCC3OC(OCC4OC(OCC5OC(OCC6OC(O)C(O)C(O)C6O)C(O)C(O)C5O)C(O)C(O)C4O)C(O)C(O)C3O)C(O)C(O)C2O)C(O)C(O)C1O` (centres unmarked) [Isomaltohexaose]: 290 µg/mL (≈ 293 µM).
Consider `OCC1OC(OCC2OC(OCC3OC(OCC4OC(OCC5OC(O)C(O)C(O)C5O)C(O)C(O)C4O)C(O)C(O)C3O)C(O)C(O)C2O)C(O)C(O)C1O` (centres unmarked) [Isomaltopentaose], for which the IC50 came out at 460 µg/mL (≈ 555 µM).
Next, `OCC1OC(OCC2OC(OCC3OC(OCC4OC(O)C(O)C(O)C4O)C(O)C(O)C3O)C(O)C(O)C2O)C(O)C(O)C1O` (centres unmarked) [Isomaltotetraose]: 1,600 μg/mL; `OCC1OC(OCC2OC(OCC3OC(O)C(O)C(O)C3O)C(O)C(O)C2O)C(O)C(O)C1O` (centres unmarked) [Isomaltotriose]: 10,000 μg/mL.
